Holding throughout (format): in vivo, rats
A short description of data set [1]: tail flick latency after Taxol-induced pain. The conditions noted are these: Taxol 20 mg/kg day 0 to day 5; day 3, day 7 and day 14; composition 21 days twice daily, vs contrast group. On the technique in general: In hot-plate and tail-flick tests a longer latency is read as antinociception.
Procedure: To understand the effect of presented pharmaceutical composition on cancer pain, the experiment was following: 6 to 7 week-old female rats (20-24 grams, ICR) were divided into control group, contrast group and experimental group. […] In contrast group and experimental group, rats were administered Taxol® (20 mg/kg) from day 0 to day 5 to induce the pain. Besides, the experimental group were also treated with presented pharmaceutical composition for 7 days before administered Taxol®, and continuously treated for 14 days after administered Taxol®. Therefore, the total days of presented pharmaceutical composition administered in experimental group is 21 days. The administered method is twice daily, and the dosage was 0.5-1.67 uL/mouse. On day 3, 7 and 14 during the drug administration, the tail flick latency (Tail-Flick Unit 37360) was conducted. The tail flick latency is used to evaluate the degree of change of pain threshold by heating the tail of rat through infrared.
Data set [2] in a line: organ weight after Taxol administration. The conditions noted are these: day 15, contrast group (Taxol) vs control group, experimental group even lower than control group. The source says: Cancer pain is a kind of pain caused by cancer, which is most common symptoms and most feared symptoms for patients. If the pain is not controlled properly, the life quality of patients would be affected severely. To understand the effect of presented pharmaceutical composition on cancer pain, the experiment was following: 6 to 7 week-old female rats (20-24 grams, ICR) were divided into control group, contrast group and experimental group. In control group, rats were not gave any medication. In contrast group and experimental group, rats were administered Taxol® (20 mg/kg) from day 0 to day 5 to induce the pain. Besides, the experimental group were also treated with presented pharmaceutical composition for 7 days before administered Taxol®, and continuously treated for 14 days after administered Taxol®. Therefore, the total days of presented pharmaceutical composition administered in experimental group is 21 days. The administered method is twice daily, and the dosage was 0.5-1.67 uL/mouse. On day 3, 7 and 14 during the drug administration, the tail flick latency (Tail-Flick Unit 37360) was conducted. The tail flick latency is used to evaluate the degree of change of pain threshold by heating the tail of rat through infrared.
Organ hypertrophy is common side effect induced by chemotherapy drugs. To understand the impact of the presented pharmaceutical compositions on organs, the female rats of example 5 were sacrificed on day 15. The heart, liver, spleen and kidney acquired from rats were weighted respectively.

Another data set has as its system white blood cells. The conditions noted are these: for the numbers of white blood cell, Day 0 before chemotherapy: day 0 before cyclophosphamide, experimental group pretreated 5 days with composition, disease and contrast groups not yet treated; for the numbers of white blood cell, Day 4 after chemotherapy: day 4 after cyclophosphamide, G-CSF on day 2 to day 4, composition twice daily 0.5-1.67 uL/mouse; for the numbers of white blood cell, Day 7 after chemotherapy: day 7 after cyclophosphamide; for the numbers of white blood cell, Day 10 after chemotherapy: day 10 after cyclophosphamide; for numbers of white blood cell (in words): disease group vs normal group, contrast group on day 7 and day 10, experimental group vs contrast group after chemotherapy. An excerpt:
Furthermore, a common side effect of chemotherapy is a drop in the number of white blood cells, which leads to an increased risk of getting an infection. Currently, granulocyte colony stimulating factor (G-CSF) treatment can make white blood cell levels go up faster. However, patients may have one or more side effects of using G-CSF. To understand the effect of present pharmaceutical composition on white blood cells, cyclophosphamide-induced leukopenia experiment execute as follows: 6 to 7 week-old female rats (20-24 grams, ICR) were divided into normal group, disease group, contrast group and experimental group. In normal group, rats were not gave any medication. In disease, contrast and experimental group, rats were administered cyclophosphamide on day 0 to induce leukopenia. Besides, in contrast group, rats were also administered G-CSF on day 2 to day 4. In experimental group, rats were treated with presented pharmaceutical composition for 5 days before administered cyclophosphamide, and continuously treated for 10 days after administered cyclophosphamid. Therefore, the total days of presented pharmaceutical composition administered in experimental group is 15 days. The administered method of presented pharmaceutical composition is twice daily, and the dosage was 0.5-1.67 uL/mouse. The rats in each group were phlebotomized on day 0 before chemotherapy, and on day 4, day 7 and day 10 after chemotherapy.

Turning to `CC(=O)O[C@H]1C(=O)[C@@]2(C)[C@H]([C@H](OC(=O)c3ccccc3)[C@]3(O)C[C@H](OC(=O)[C@H](O)[C@@H](NC(=O)c4ccccc4)c4ccccc4)C(C)=C1C3(C)C)[C@]1(OC(C)=O)CO[C@@H]1C[C@@H]2O` [Taxol®], in data set [1], the tail flick latency entry is “lower”. In addition, the heart weight result in data set [2] (FIG. 8A) is given as “significantly heavier”. For the same molecule, the liver weight entry in data set [2] (FIG. 8B) is “significantly heavier”. Further, in data set [2] (FIG. 8C), the spleen weight result was “significantly heavier”. Also, the kidney weight result in data set [2] (FIG. 8D) is “significantly heavier”.
For the molecule `O=P1(N(CCCl)CCCl)NCCCO1` (stereo not drawn) [cyclophosphamide], in the data set on white blood cells, the “the numbers of white blood cell, Day 0 before chemotherapy” value was determined as 887; the “the numbers of white blood cell, Day 4 after chemotherapy” value is reported as 56; the “the numbers of white blood cell, Day 7 after chemotherapy” value turned out to be 333; the “the numbers of white blood cell, Day 10 after chemotherapy” value is 772. Moreover, the “numbers of white blood cell (in words)” value in the data set with white blood cells is “extremely reduced”.

B1: G-CSF: granulocyte colony stimulating factor, given day 2 to day 4 after cyclophosphamide; contrast group of leukopenia experiment (protein, UniProt P09919 31-207, looked up)
Granulocyte …: TPLGPASSLPQSFLLKCLEQVRKIQGDGAALQEKLVSECATYKLCHPEELVLLGHSLGIPWAPLSSCPSQALQLAGCLSQLHSGLFLYQGLLQALEGISPELGPTLDTLQLDVADFATTIWQQMEELGMAPALQPTQGAMPAFASAFQRRAGGVLVASHLQSFLEVSYRVLRHLAQP
Regarding B1, in the data set with white blood cells, the “the numbers of white blood cell, Day 0 before chemotherapy” value came out at 843; the “the numbers of white blood cell, Day 4 after chemotherapy” value is listed as 51; the “the numbers of white blood cell, Day 7 after chemotherapy” value was determined as 528; the “the numbers of white blood cell, Day 10 after chemotherapy” value came out at 768. The “numbers of white blood cell (in words)” value with white blood cells is reported as “increase”.

Source of the values: patent US11065293B2 (priority 2016, dated 2021).
